The record followed here is PMC9569988 (International Journal of Molecular Sciences, 2022).

“And” between values parts separate entries of the source, which are not always exact repeats. Equal entries are not always repeated. “Also recorded” adds a separate entry of the source.

A word on the EC50: it is the concentration that produces a half-maximal response. A high value points to a need for much substance. By inhibition is commonly meant the change of the read-out against control, counted positive when it falls.

The test system of data set [1] is SADS-CoV. The data set is classed as cell-based, Swine acute diarrhea syndrome coronavirus.
The test system of data set [2] is SADS-CoV. The data set is classed as cell-based, Swine acute diarrhea syndrome coronavirus. This is another data set of the same source.
For data set [3], the system named is SADS-CoV. Put plainly: microbe, parasite or virus in culture. The data set is classed as cell-based. The following applies: Swine acute diarrhea syndrome coronavirus, Huh-7.
Data set [4] relates to SADS-CoV. The data set is classed as cell-based, Swine acute diarrhea syndrome coronavirus. The source holds these as a separate data set.
Data set [5] has as its system SADS-CoV. The data set is classed as cell-based, Swine acute diarrhea syndrome coronavirus. The source holds these as a separate data set.
Data set [6] deals with SADS-CoV. In words: microbe, parasite or virus in culture. The following applies: for inhibition at 10 µM: Swine acute diarrhea syndrome coronavirus, Huh-7, read-out: inhibition rate of SADS-CoV viral replication (qPCR). The data set is classed as cell-based, Swine acute diarrhea syndrome coronavirus.
The test system of data set [7] is SADS-CoV. The data set is classed as cell-based, Swine acute diarrhea syndrome coronavirus. The source holds these as a separate data set.
Data set [8] in a line: in vitro. The note with it: human.
The test system of data set [9] is SADS-CoV. The data set is classed as cell-based, Swine acute diarrhea syndrome coronavirus. This is another data set of the same source.
The test system of data set [10] is Huh7 cells.
Data set [11] relates to SADS-CoV nucleocapsid protein. The data set is classed as cell-based, Swine acute diarrhea syndrome coronavirus.

With `COc1ccc2cc1Oc1ccc(cc1)C[C@H]1c3c(cc4c(c3Oc3cc5c(cc3OC)CCN(C)[C@@H]5C2)OCO4)CCN1C` [Cepharanthine], the “decrease of viral RNA expression in the cells” value (shortened to “decrease … in the cells”) in data set [1] was 72.9% and 57.5%. For the same compound, the “effect on virus internalization” value in data set [2] was “less function”. The same compound gave an EC50 in data set [3] of 789 nM. Further, the “viral titers in the supernatant (infectious progeny)” value (from here on “viral titers in the supernatant”) in data set [4] is reported as “at the ”Entry” stage could reduce infectious progeny”. The “SADS-CoV titer (TCID50) at 24 hpi” value in data set [5] was “viral titer was decreased; also recorded: also effective; also recorded: showed a reduction in SADS-CoV viral progeny”. Also, in data set [6], the “CPE inhibition in SADS-CoV infection” value is reported as “significantly exhibited CPE inhibitions” and the inhibition at 10 µM is > 60%. Besides, the “virus RNA level in the supernatant when added after virus entry” value in data set [7] was “could not inhibit SADS-CoV replication”. Besides, the CC50 in data set [8] is 16200 nM.

With `Nc1ccn([C@@H]2O[C@H](CO)[C@@H](O)C2(F)F)c(=O)n1` [Gemcitabine], the “decrease … in the cells” value in [1] was “less remarkable differences”. In addition, the “effect on virus binding compared with positive control” value in data set [9] is “no statistically significant difference”. The “effect on virus internalization” value in data set [2] is “no statistically significant difference”. Also, the CC50 result in [10] is listed as “low cytotoxicity”. This compound also had an EC50 in data set [3] of 117 nM. In addition, the “viral titers in the supernatant” value in data set [4] was “exhibited inhibitory effects only when they were added after viral entry”. For the same compound, in data set [6], the “CPE inhibition in SADS-CoV infection” value was “significantly exhibited CPE inhibitions” and the inhibition at 10 µM was > 60%. Further, in data set [11], the “expression of viral proteins in cells (immunoblot)” value (from here on “expression of viral proteins”) was “inhibition effect”. The “decrease of viral RNA in the supernatant” value in [7] was 1.8 log. This compound also registered a CC50 in [8] of 88500 nM.

For the compound `CN(C)c1ccc2nc3ccc(=[N+](C)C)cc-3sc2c1` [Methylene blue], in [9], the “decrease of SADS-CoV RNA in binding assay” value was 78.5% and 88.5%. Further, the “effect on virus internalization” value in [2] is listed as “no distinct effect”. In data set [10], the CC50 result is “low cytotoxicity”. Further, the midpoint of the response in data set [3], the EC50, lay at 218 nM. Moreover, the “viral titers in the supernatant” value in data set [4] is “strong inhibitory activity against viral replication during both periods”. Besides, the “SADS-CoV titer (TCID50) at 24 hpi” value in data set [5] is “inhibit SADS-CoV infection; also recorded: inhibition effect got better”. For the same compound, in data set [6], the “CPE inhibition in SADS-CoV infection” value was “significantly exhibited CPE inhibitions” and the inhibition at 10 µM is > 60%. In addition, in [11], the “expression of viral proteins” value is reported as “inhibition of viral protein expression”. Besides, in data set [7], the “reduction of viral RNA compared with the positive control” value is recorded as 2- to 3 log and the “viral RNA decrease” value is reported as 3 log. Moreover, in data set [8], the CC50 was > 25000 nM.

Take `COc1c(C)c2c(c(O)c1C/C=C(\C)CCC(=O)OCCN1CCOCC1)C(=O)OC2` [Mycophenolate mofetil]: the “decrease … in the cells” value in data set [1] was 91.5% and 65.8%. In addition, in [9], the “effect on virus binding compared with positive control” value is listed as “no statistically significant difference”. Also, the “effect on virus internalization” value in [2] is on record as “no statistically significant difference”. For the same compound, the CC50 entry in data set [10] is “low cytotoxicity”. Also, the 50% effective concentration (EC50) in data set [3] turned out to be 1700 nM. For the same compound, the “viral titers in the supernatant” value in data set [4] is “exhibited inhibitory effects only when they were added after viral entry”. In [6], the “CPE inhibition in SADS-CoV infection” value was “significantly exhibited CPE inhibitions” and the inhibition at 10 µM was > 60%. Besides, the “expression of viral proteins” value in data set [11] is reported as “inhibition effect”. Also, the “decrease of viral RNA in the supernatant” value in data set [7] is on record as 0.5 log. Further, the CC50 in data set [8] was > 100000 nM.

Consider `COc1c(C)c2c(c(O)c1C/C=C(\C)CCC(=O)O)C(=O)OC2` [Mycophenolic acid], for which, in data set [1], the “decrease … in the cells” value is 96.7% and 93.9%. Further, the “effect on virus binding compared with positive control” value in data set [9] was “no statistically significant difference”. Besides, in data set [2], the “effect on virus internalization” value is reported as “no statistically significant difference”. In addition, the CC50 result in data set [10] is given as “low cytotoxicity”. This compound gave an EC50 in [3] of 560 nM. Moreover, in [4], the “viral titers in the supernatant” value is reported as “exhibited inhibitory effects only when they were added after viral entry”. In data set [6], the “CPE inhibition in SADS-CoV infection” value is on record as “significantly exhibited CPE inhibitions” and the inhibition at 10 µM was > 60%. For the same compound, the “expression of viral proteins” value in data set [11] is “inhibition effect”. Also, in data set [7], the “decrease of viral RNA in the supernatant” value was found to be 0.9 log. For the same compound, in data set [8], the CC50 is > 100000 nM.
